Source: BindingDB's records for doi:10.1016/s0960-894x(03)00389-5 (National Institute On Drug Abuse-Intramural Research Program, 2003)

How the values were obtained:
[1] = Agonistic activity of quinpirole stimulation of mitogenesis in human dopamine D3 transfected CHO cells
[2] = Agonistic activity of quinpirole stimulation of mitogenesis in human Dopamine receptor D3 transfected CHO cells

Row | EC50 [1] [µM] | EC50 [2] [µM] | SMILES
1 | > 10 | – | O=C(NC/C=C\CN1CCN(c2cccc(Cl)c2Cl)CC1)c1ccccc1 [N-{(Z)-4-[4-(2,3-Dichloro-phenyl)-piperazin-1-yl]-but-2-enyl}-benzamide]
2 | – | > 10 | O=C(NC/C=C/CN1CCN(c2cccc(Cl)c2Cl)CC1)c1ccccc1 [N-{(E)-4-[4-(2,3-Dichloro-phenyl)-piperazin-1-yl]-but-2-enyl}-benzamide]
